Data published in ChEMBL document CHEMBL1201862, “PubChem BioAssay data set” (2004).
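Cells were grown in 96-well plates and exposed to each compound for 48 hours at five concentrations; endpoints were interpolated linearly between bracketing concentrations, or set to the highest concentration if not reached. Here, GI50 denotes the concentration required for 50% inhibition of growth.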 Activity calls are given as the source filed them. No stated cut-off is given here; in the data, active = GI50 up to about 1.1 µM and inactive = higher.

Experiments:
Experiment in all cases: NCI anticancer screen, dose series, 48 h
[1] = tested on: 786-0
[2] = tested on: A498
[3] = tested on: A549
[4] = tested on: ACHN
[5] = tested on: CAKI-1
[6] = tested on: CCRF-CEM
[7] = tested on: COLO 205
[8] = tested on: DLD-1
[9] = tested on: DMS-114
[10] = tested on: EKVX
[11] = tested on: HCT-116
[12] = tested on: HL-60
[13] = tested on: HOP-18
[14] = tested on: HOP-62
[15] = tested on: HOP-92
[16] = tested on: HT-29
[17] = tested on: IGROV-1
[18] = tested on: K562
[19] = tested on: KM-20L2
[20] = tested on: KM12
[21] = tested on: LOX IMVI
[22] = tested on: LXFL 529
[23] = tested on: M14
[24] = tested on: M19-MEL
[25] = tested on: MOLT-4
[26] = tested on: Malme-3M
[27] = tested on: NCI-H226
[28] = tested on: NCI-H23
[29] = tested on: NCI-H460
[30] = tested on: NCI-H522
[31] = tested on: OVCAR-3
[32] = tested on: OVCAR-4
[33] = tested on: OVCAR-8
[34] = tested on: RPMI-8226
[35] = tested on: RXF 393
[36] = tested on: RXF 631
[37] = tested on: SF-268
[38] = tested on: SF-295
[39] = tested on: SF-539
[40] = tested on: SK-MEL-28
[41] = tested on: SK-MEL-5
[42] = tested on: SK-OV-3
[43] = tested on: SN12C
[44] = tested on: SNB-19
[45] = tested on: SNB-75
[46] = tested on: SNB-78
[47] = tested on: SR
[48] = tested on: SW-620
[49] = tested on: TK-10
[50] = tested on: U-251
[51] = tested on: UACC-257
[52] = tested on: UACC-62
[53] = tested on: UO-31
[54] = tested on: XF498

Measured: GI50

C=C=C(CC)C(C(=O)OC)N(CC)CC (centres undefined)
inactive: [1] > 100 µM | [2] > 100 µM | [3] > 100 µM | [4] > 100 µM | [5] > 100 µM | [6] > 100 µM | [7] > 100 µM | [8] > 100 µM | [9] > 100 µM | [10] > 100 µM | [11] > 100 µM | [12] > 100 µM | [13] > 100 µM | [14] > 100 µM | [15] > 100 µM | [16] > 100 µM | [17] > 100 µM | [18] > 100 µM | [19] > 100 µM | [20] > 100 µM | [21] > 100 µM | [22] > 100 µM | [23] > 100 µM | [24] > 100 µM | [25] > 100 µM | [26] > 100 µM | [27] > 100 µM | [28] > 100 µM | [29] > 100 µM | [30] > 100 µM | [31] > 100 µM | [32] > 100 µM | [33] > 100 µM | [34] > 100 µM | [35] > 100 µM | [36] > 100 µM | [37] > 100 µM | [38] > 100 µM | [39] > 100 µM | [40] > 100 µM | [41] > 100 µM | [42] > 100 µM | [43] > 100 µM | [44] > 100 µM | [45] > 100 µM | [46] > 100 µM | [47] > 100 µM | [48] > 100 µM | [49] > 100 µM | [50] > 100 µM | [51] > 100 µM | [52] > 100 µM | [53] > 100 µM | [54] > 100 µM
